Measurements: ChEMBL document CHEMBL1201862, “PubChem BioAssay data set” (2004)
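96-well plates; 48 h exposure; 5 concentrations. Endpoints by linear interpolation between flanking doses. Not reached: highest tested concentration assigned. Abbreviation: GI50, concentration required for 50% inhibition of growth.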 Activity calls are given as the source filed them. Cut-off read from the data, not from the text of the source: active = GI50 up to about 1.1 µM and inactive = higher.

Assays:
Assay in all cases: NCI tumour cell line growth inhibition, 48 h
A549 = test system: A549
IGROV-1 = test system: IGROV-1
Malme-3M = test system: Malme-3M
Hs-578T = test system: Hs-578T
MDA-N = test system: MDA-N
NCI-H226 = test system: NCI-H226
MCF7 = test system: MCF7
K562 = test system: K562
U-251 = test system: U-251
HCT-116 = test system: HCT-116
SN12C = test system: SN12C
A498 = test system: A498
NCI-H23 = test system: NCI-H23
OVCAR-5 = test system: OVCAR-5
MDA-MB-231 = test system: MDA-MB-231
SK-MEL-28 = test system: SK-MEL-28
PC-3 = test system: PC-3
HL-60 = test system: HL-60
MDA-MB-435 = test system: MDA-MB-435
T47D = test system: T47D
NCI/ADR-RES = test system: NCI/ADR-RES
HOP-62 = test system: HOP-62
ACHN = test system: ACHN
HCC 2998 = test system: HCC 2998
CCRF-CEM = test system: CCRF-CEM
OVCAR-4 = test system: OVCAR-4
SK-OV-3 = test system: SK-OV-3
RPMI-8226 = test system: RPMI-8226
EKVX = test system: EKVX
M14 = test system: M14
HT-29 = test system: HT-29
OVCAR-8 = test system: OVCAR-8
HCT-15 = test system: HCT-15
NCI-H522 = test system: NCI-H522
SNB-19 = test system: SNB-19
TK-10 = test system: TK-10
LOX IMVI = test system: LOX IMVI
MOLT-4 = test system: MOLT-4
BT-549 = test system: BT-549
OVCAR-3 = test system: OVCAR-3
UACC-62 = test system: UACC-62
UO-31 = test system: UO-31
SF-295 = test system: SF-295
COLO 205 = test system: COLO 205
KM12 = test system: KM12
SK-MEL-5 = test system: SK-MEL-5
786-0 = test system: 786-0
SK-MEL-2 = test system: SK-MEL-2
NCI-H460 = test system: NCI-H460
UACC-257 = test system: UACC-257
RXF 393 = test system: RXF 393
SF-268 = test system: SF-268
SNB-75 = test system: SNB-75
SW-620 = test system: SW-620
DU-145 = test system: DU-145
SR = test system: SR
CAKI-1 = test system: CAKI-1
HOP-92 = test system: HOP-92
SF-539 = test system: SF-539

With NC(CC(O)(c1ccccc1)c1ccccc1)c1ccccc1S (centres undefined) the GI50 (A549) was 14.7 µM (inactive), the GI50 (IGROV-1) was > 10 µM (inactive) and the GI50 (Malme-3M) was 25.7 µM (inactive). The GI50 (Hs-578T) was 20.3 µM (inactive), the GI50 (MDA-N) was 15.6 µM (inactive) and the GI50 (NCI-H226) was 15 µM (inactive). For the same molecule, the GI50 (MCF7) was 15.2 µM (inactive), the GI50 (K562) was 16.4 µM (inactive) and the GI50 (U-251) was 15.1 µM (inactive). The GI50 (HCT-116) was 13.2 µM (inactive), the GI50 (SN12C) was 18.8 µM (inactive) and the GI50 (A498) was 17.6 µM (inactive). The GI50 (NCI-H23) was 18.5 µM (inactive), the GI50 (OVCAR-5) was 15.9 µM (inactive) and the GI50 (MDA-MB-231) was 17.1 µM (inactive). For the same molecule, the GI50 (SK-MEL-28) was 17.5 µM (inactive), the GI50 (PC-3) was 11.4 µM (inactive) and the GI50 (HL-60) was 15 µM (inactive). For the same molecule, the GI50 (MDA-MB-435) was 14.8 µM (inactive), the GI50 (T47D) was 16.8 µM (inactive) and the GI50 (NCI/ADR-RES) was 16.6 µM (inactive). The GI50 (HOP-62) was 15.7 µM (inactive), the GI50 (ACHN) was 13.1 µM (inactive) and the GI50 (HCC 2998) was 17.3 µM (inactive). For the same molecule, the GI50 (CCRF-CEM) was 13 µM (inactive), the GI50 (OVCAR-4) was 15.9 µM (inactive) and the GI50 (SK-OV-3) was 18.7 µM (inactive). The GI50 (RPMI-8226) was 22.2 µM (inactive), the GI50 (EKVX) was 7.94 µM (inactive) and the GI50 (M14) was 15.4 µM (inactive). The GI50 (HT-29) was 14.5 µM (inactive), the GI50 (OVCAR-8) was > 10 µM (inactive) and the GI50 (HCT-15) was 15.2 µM. For the same molecule, the GI50 (NCI-H522) was 16.6 µM (inactive), the GI50 (SNB-19) was 16.4 µM (inactive) and the GI50 (TK-10) was 15.7 µM (inactive). The GI50 (LOX IMVI) was 13.8 µM (inactive), the GI50 (MOLT-4) was 21.4 µM (inactive) and the GI50 (BT-549) was 14.7 µM (inactive). The GI50 (OVCAR-3) was 16 µM (inactive), the GI50 (UACC-62) was 15.5 µM (inactive) and the GI50 (UO-31) was 11.4 µM (inactive). The GI50 (SF-295) was 14.9 µM (inactive), the GI50 (COLO 205) was 15.4 µM (inactive) and the GI50 (KM12) was 12.5 µM (inactive). The GI50 (SK-MEL-5) was 13 µM (inactive), the GI50 (786-0) was 15.9 µM (inactive) and the GI50 (SK-MEL-2) was 15.9 µM (inactive). For the same molecule, the GI50 (NCI-H460) was 18 µM (inactive), the GI50 (UACC-257) was 18.9 µM (inactive) and the GI50 (RXF 393) was 17 µM (inactive). The GI50 (SF-268) was 9.71 µM (inactive), the GI50 (SNB-75) was 15 µM (inactive) and the GI50 (SW-620) was 16.7 µM (inactive). For the same molecule, the GI50 (DU-145) was > 10 µM (inactive) and the GI50 (SR) was 23.6 µM (inactive).

With c1ccc2c(c1)CC1c3[nH]c4ccccc4c3CCN21 (centres undefined) the GI50 (A549) was > 10 µM (inactive), the GI50 (IGROV-1) was > 10 µM (inactive) and the GI50 (Malme-3M) was > 10 µM (inactive). The GI50 (Hs-578T) was > 10 µM (inactive), the GI50 (MDA-N) was > 10 µM (inactive) and the GI50 (NCI-H226) was > 10 µM (inactive). For the same molecule, the GI50 (MCF7) was > 10 µM (inactive), the GI50 (K562) was > 10 µM (inactive) and the GI50 (U-251) was > 10 µM (inactive). For the same molecule, the GI50 (HCT-116) was > 10 µM (inactive), the GI50 (SN12C) was > 10 µM (inactive) and the GI50 (NCI-H23) was > 10 µM (inactive). The GI50 (OVCAR-5) was > 10 µM (inactive), the GI50 (CAKI-1) was > 10 µM (inactive) and the GI50 (MDA-MB-231) was > 10 µM (inactive). For the same molecule, the GI50 (SK-MEL-28) was > 10 µM (inactive), the GI50 (PC-3) was > 10 µM (inactive) and the GI50 (HL-60) was > 10 µM (inactive). The GI50 (MDA-MB-435) was > 10 µM (inactive), the GI50 (T47D) was > 10 µM (inactive) and the GI50 (NCI/ADR-RES) was > 10 µM (inactive). The GI50 (HOP-62) was > 10 µM (inactive), the GI50 (ACHN) was > 10 µM (inactive) and the GI50 (HCC 2998) was > 10 µM (inactive). For the same molecule, the GI50 (CCRF-CEM) was > 10 µM (inactive), the GI50 (OVCAR-4) was > 10 µM (inactive) and the GI50 (SK-OV-3) was > 10 µM (inactive). For the same molecule, the GI50 (RPMI-8226) was > 10 µM (inactive), the GI50 (EKVX) was > 10 µM (inactive) and the GI50 (M14) was > 10 µM (inactive). The GI50 (HT-29) was > 10 µM (inactive), the GI50 (OVCAR-8) was > 10 µM (inactive) and the GI50 (HCT-15) was greater than 10 µM. The GI50 (NCI-H522) was > 10 µM (inactive), the GI50 (SNB-19) was > 10 µM (inactive) and the GI50 (TK-10) was > 10 µM (inactive). The GI50 (LOX IMVI) was > 10 µM (inactive), the GI50 (MOLT-4) was > 10 µM (inactive) and the GI50 (BT-549) was > 10 µM (inactive). The GI50 (OVCAR-3) was > 10 µM (inactive), the GI50 (UACC-62) was > 10 µM (inactive) and the GI50 (UO-31) was > 10 µM (inactive). For the same molecule, the GI50 (SF-295) was > 10 µM (inactive), the GI50 (COLO 205) was > 10 µM (inactive) and the GI50 (KM12) was > 10 µM (inactive). The GI50 (SK-MEL-5) was > 10 µM (inactive), the GI50 (786-0) was > 10 µM (inactive) and the GI50 (SK-MEL-2) was > 10 µM (inactive). The GI50 (NCI-H460) was > 10 µM (inactive), the GI50 (UACC-257) was > 10 µM (inactive) and the GI50 (HOP-92) was > 10 µM (inactive). For the same molecule, the GI50 (RXF 393) was > 10 µM (inactive), the GI50 (SF-268) was > 10 µM (inactive) and the GI50 (SNB-75) was > 10 µM (inactive). For the same molecule, the GI50 (SW-620) was > 10 µM (inactive), the GI50 (DU-145) was > 10 µM (inactive) and the GI50 (SR) was > 10 µM (inactive). For the same molecule, the GI50 (SF-539) was > 10 µM (inactive).
